Laboratory results as given in PubChem BioAssay AID2060912 (Molecular Pharmacology Branch, DTP, NCI, 2025).

Tested on: HUVEC/MSC spheroids viability
Test: Human HUVEC/MSC cell line growth inhibition [KRAS2];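 on viability, T/C: percent of DMSO vehicle control luminescence so 100% = untreated viability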
Details: for IC50: curve of first compound; for viability, T/C: stronger effect = lower value
Outline: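 Stroma-only multicellular spheroids, formed from HUVEC and human MSCs at passages </=5, received RAS-pathway inhibitors with or without a second targeted drug. Dosing followed half-log dilutions from clinically achievable levels.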

[1] = second compound 0.0316 µM, first compound 0.0316 µM
[2] = second compound 0.0316 µM, first compound 0.1 µM
[3] = second compound 0.0316 µM, first compound 0.316 µM
[4] = second compound 0.0316 µM, first compound 1 µM
[5] = second compound 0.1 µM, first compound 0.0316 µM
[6] = second compound 0.1 µM, first compound 0.1 µM
[7] = second compound 0.1 µM, first compound 0.316 µM
[8] = second compound 0.1 µM, first compound 1 µM
[9] = second compound 0.316 µM, first compound 0.0316 µM
[10] = second compound 0.316 µM, first compound 0.1 µM
[11] = second compound 0.316 µM, first compound 0.316 µM
[12] = second compound 0.316 µM, first compound 1 µM
[13] = second compound 1 µM, first compound 0.0316 µM
[14] = second compound 1 µM, first compound 0.1 µM
[15] = second compound 1 µM, first compound 0.316 µM
[16] = second compound 1 µM, first compound 1 µM
[17] = second compound 3.16 µM, first compound 0.0316 µM
[18] = second compound 3.16 µM, first compound 0.1 µM
[19] = second compound 3.16 µM, first compound 0.316 µM
[20] = second compound 3.16 µM, first compound 1 µM
[21] = second compound 10 µM, first compound 0.0316 µM
[22] = second compound 10 µM, first compound 0.1 µM
[23] = second compound 10 µM, first compound 0.316 µM
[24] = second compound 10 µM, first compound 1 µM

## CCNC(=O)CC1N=C(c2ccc(Cl)cc2)c2cc(OC)ccc2-n2c(C)nnc21 (stereo unspecified) + C=CC(=O)N1CCN(c2nc(OCC3CCCN3C)nc3c2CCN(c2cccc4cccc(C)c24)C3)CC1CC#N
Second compound 0.00949 µM
  IC50: > 10000 nM
Second compound 0.03 µM
  IC50: > 10000 nM
Second compound 0.0949 µM
  IC50: > 10000 nM
Second compound 0.3 µM
  IC50: > 10000 nM
Second compound 0.949 µM
  IC50: > 10000 nM
Second compound 3 µM
  IC50: > 10000 nM
Second compound 0.00949 µM, first compound 0.0316 µM
  viability, T/C: 68.5%
Second compound 0.00949 µM, first compound 0.1 µM
  viability, T/C: 79.5%
Second compound 0.00949 µM, first compound 0.316 µM
  viability, T/C: 69.5%
Second compound 0.00949 µM, first compound 1 µM
  viability, T/C: 115%
Second compound 0.00949 µM, first compound 3.16 µM
  viability, T/C: 100%
Second compound 0.00949 µM, first compound 10 µM
  viability, T/C: 90.3%
Second compound 0.03 µM, first compound 0.0316 µM
  viability, T/C: 82.6%
Second compound 0.03 µM, first compound 0.1 µM
  viability, T/C: 76.9%
Second compound 0.03 µM, first compound 0.316 µM
  viability, T/C: 79.1%
Second compound 0.03 µM, first compound 1 µM
  viability, T/C: 108%
Second compound 0.03 µM, first compound 3.16 µM
  viability, T/C: 119%
Second compound 0.03 µM, first compound 10 µM
  viability, T/C: 110%
Second compound 0.0949 µM, first compound 0.0316 µM
  viability, T/C: 73.3%
Second compound 0.0949 µM, first compound 0.1 µM
  viability, T/C: 63.3%
Second compound 0.0949 µM, first compound 0.316 µM
  viability, T/C: 78.8%
Second compound 0.0949 µM, first compound 1 µM
  viability, T/C: 115%
Second compound 0.0949 µM, first compound 3.16 µM
  viability, T/C: 97.8%
Second compound 0.0949 µM, first compound 10 µM
  viability, T/C: 111%
Second compound 0.3 µM, first compound 0.0316 µM
  viability, T/C: 72.8%
Second compound 0.3 µM, first compound 0.1 µM
  viability, T/C: 64.3%
Second compound 0.3 µM, first compound 0.316 µM
  viability, T/C: 60.5%
Second compound 0.3 µM, first compound 1 µM
  viability, T/C: 102%
Second compound 0.3 µM, first compound 3.16 µM
  viability, T/C: 91.9%
Second compound 0.3 µM, first compound 10 µM
  viability, T/C: 104%
Second compound 0.949 µM, first compound 0.0316 µM
  viability, T/C: 53.3%
Second compound 0.949 µM, first compound 0.1 µM
  viability, T/C: 63.1%
Second compound 0.949 µM, first compound 0.316 µM
  viability, T/C: 82.7%
Second compound 0.949 µM, first compound 1 µM
  viability, T/C: 74%
Second compound 0.949 µM, first compound 3.16 µM
  viability, T/C: 83.7%
Second compound 0.949 µM, first compound 10 µM
  viability, T/C: 86.1%
Second compound 3 µM, first compound 0.0316 µM
  viability, T/C: 75.5%
Second compound 3 µM, first compound 0.1 µM
  viability, T/C: 89.9%
Second compound 3 µM, first compound 0.316 µM
  viability, T/C: 82.7%
Second compound 3 µM, first compound 1 µM
  viability, T/C: 67.1%
Second compound 3 µM, first compound 3.16 µM
  viability, T/C: 71.2%
Second compound 3 µM, first compound 10 µM
  viability, T/C: 54.3%

## CCN1CCN(Cc2ccc(Nc3ncc(F)c(-c4cc(F)c5nc(C)n(C(C)C)c5c4)n3)nc2)CC1 + CNCc1ccccc1-c1csc(C(C)Nc2nc(C)nc3cc(OC)c(OC)cc23)c1
Second compound 0.0316 µM
  IC50: > 1000 nM
Second compound 0.1 µM
  IC50: > 1000 nM
Second compound 0.316 µM
  IC50: > 1000 nM
Second compound 1 µM
  IC50: > 1000 nM
Second compound 3.16 µM
  IC50: 563 nM
Second compound 10 µM
  IC50: < 3.16 nM
Second compound 0.0316 µM, first compound 0.00316 µM
  viability, T/C: 100%
Second compound 0.0316 µM, first compound 0.01 µM
  viability, T/C: 93.7%
[1]
  viability, T/C: 68.7%
[2]
  viability, T/C: 96.5%
[3]
  viability, T/C: 107%
[4]
  viability, T/C: 140%
Second compound 0.1 µM, first compound 0.00316 µM
  viability, T/C: 91%
Second compound 0.1 µM, first compound 0.01 µM
  viability, T/C: 96.2%
[5]
  viability, T/C: 83%
[6]
  viability, T/C: 85.6%
[7]
  viability, T/C: 107%
[8]
  viability, T/C: 155%
Second compound 0.316 µM, first compound 0.00316 µM
  viability, T/C: 78.2%
Second compound 0.316 µM, first compound 0.01 µM
  viability, T/C: 97.7%
[9]
  viability, T/C: 79.5%
[10]
  viability, T/C: 92.7%
[11]
  viability, T/C: 102%
[12]
  viability, T/C: 113%
Second compound 1 µM, first compound 0.00316 µM
  viability, T/C: 54.9%
Second compound 1 µM, first compound 0.01 µM
  viability, T/C: 90.8%
[13]
  viability, T/C: 91.8%
[14]
  viability, T/C: 81.4%
[15]
  viability, T/C: 114%
[16]
  viability, T/C: 119%
Second compound 3.16 µM, first compound 0.00316 µM
  viability, T/C: 83.8%
Second compound 3.16 µM, first compound 0.01 µM
  viability, T/C: 103%
[17]
  viability, T/C: 95.5%
[18]
  viability, T/C: 92.8%
[19]
  viability, T/C: 123%
[20]
  viability, T/C: 0.46%
Second compound 10 µM, first compound 0.00316 µM
  viability, T/C: 0.4%
Second compound 10 µM, first compound 0.01 µM
  viability, T/C: 0.42%
[21]
  viability, T/C: 0.47%
[22]
  viability, T/C: 0.41%
[23]
  viability, T/C: 0.39%
[24]
  viability, T/C: 0.31%

## COC(=O)c1ccc2c(C(=Nc3ccc(N(C)C(=O)CN4CCN(C)CC4)cc3)c3ccccc3)c(O)[nH]c2c1 + C=CC(=O)N1CCN(c2nc(=O)n(-c3c(C)ccnc3C(C)C)c3nc(-c4c(O)cccc4F)c(F)cc23)C(C)C1
Second compound 0.0316 µM
  IC50: 2670 nM
Second compound 0.1 µM
  IC50: 2770 nM
Second compound 0.316 µM
  IC50: 3640 nM
Second compound 1 µM
  IC50: 3140 nM
Second compound 3.16 µM
  IC50: 3920 nM
Second compound 10 µM
  IC50: 2420 nM
[1]
  viability, T/C: 92.2%
[2]
  viability, T/C: 85.4%
[3]
  viability, T/C: 85.9%
[4]
  viability, T/C: 61.6%
Second compound 0.0316 µM, first compound 3.16 µM
  viability, T/C: 51.7%
Second compound 0.0316 µM, first compound 10 µM
  viability, T/C: 3.33%
[5]
  viability, T/C: 86.8%
[6]
  viability, T/C: 101%
[7]
  viability, T/C: 99.8%
[8]
  viability, T/C: 66%
Second compound 0.1 µM, first compound 3.16 µM
  viability, T/C: 50.3%
Second compound 0.1 µM, first compound 10 µM
  viability, T/C: 0.39%
[9]
  viability, T/C: 79.2%
[10]
  viability, T/C: 87.9%
[11]
  viability, T/C: 96.2%
[12]
  viability, T/C: 83.4%
Second compound 0.316 µM, first compound 3.16 µM
  viability, T/C: 56.5%
Second compound 0.316 µM, first compound 10 µM
  viability, T/C: 3.54%
[13]
  viability, T/C: 88.4%
[14]
  viability, T/C: 101%
[15]
  viability, T/C: 115%
[16]
  viability, T/C: 75%
Second compound 1 µM, first compound 3.16 µM
  viability, T/C: 52.5%
Second compound 1 µM, first compound 10 µM
  viability, T/C: 0.39%
[17]
  viability, T/C: 94.3%
[18]
  viability, T/C: 149%
[19]
  viability, T/C: 126%
[20]
  viability, T/C: 80.5%
Second compound 3.16 µM, first compound 3.16 µM
  viability, T/C: 67.8%
Second compound 3.16 µM, first compound 10 µM
  viability, T/C: 0.46%
[21]
  viability, T/C: 90.2%
[22]
  viability, T/C: 102%
[23]
  viability, T/C: 145%
[24]
  viability, T/C: 85.4%
Second compound 10 µM, first compound 3.16 µM
  viability, T/C: 39.4%
Second compound 10 µM, first compound 10 µM
  viability, T/C: 1.51%
